Reference: the supplement of paper PMC10307832

Experiments:
Test in all cases: relative viability (nuclei count vs DMSO), 5 days (fraction); higher = more cells survive
[1] = compound: O=C(Nc1cccc(C(F)(F)F)c1)Nc1cc(S(=O)(=O)NC2CC2)ccc1-c1ccsc1 [AGI-6780]
How it was run: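 Cells of lung cancer lines were placed in 1536-well plates and kept overnight at 37 °C. Pinning then delivered five library-drug doses (not always all listed), spaced by √10, onto plates anchored with vehicle, and the cells were left 5 days without changing medium. One step fixed, permeabilised and stained them with Hoechst, and MetaXpress counted nuclei in 4× images. Viability, as a median over plates, is treated-well nuclei divided by vehicle-well nuclei, with acceptance only at control CV below 25% and at least one doubling.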

[2] = compound: O=C(Nc1cccc(C(F)(F)F)c1)Nc1cc(S(=O)(=O)NC2CC2)ccc1-c1ccsc1 [AGI-6780] + CC1(C)CCC(c2ccc(Cl)cc2)=C(CN2CCN(c3ccc(C(=O)NS(=O)(=O)c4ccc(N[C@H](CCN5CCOCC5)CSc5ccccc5)c(S(=O)(=O)C(F)(F)F)c4)cc3)CC2)C1 [Navitoclax] (partner 0.5 µM)
How it was run: (§1)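 After 5 days of treatment, lung cancer cells in 1536-well plates were fixed and stained in a single step (final 0.05% Triton X-100, 1% formaldehyde, 1 ug/ml Hoechst) and their nuclei counted on 4× images. Treatment had been applied by pin tool the day after seeding as one drug alone or as a fixed anchor-drug dose with five library-drug doses (not always all listed) in √10 steps. Relative viability is the nuclei count of treated wells divided by that of vehicle wells, and values are medians of duplicate plates.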

[3] = compound: O=C(Nc1cccc(C(F)(F)F)c1)Nc1cc(S(=O)(=O)NC2CC2)ccc1-c1ccsc1 [AGI-6780] + Cc1cc(Nc2cc(N3CCN(C)CC3)nc(Sc3ccc(NC(=O)C4CC4)cc3)n2)n[nH]1 [Tozasertib] (partner 0.1 µM)
How it was run: as §1

[4] = compound: O=C(Nc1cccc(C(F)(F)F)c1)Nc1cc(S(=O)(=O)NC2CC2)ccc1-c1ccsc1 [AGI-6780] + N=C(N)NC(=N)NCCc1ccccc1 [Phenformin] (partner 250 µM)
How it was run: as §1

| Cell Line | relative viability ([1]; 0.08 µM) | relative viability ([1]; 0.253 µM) | relative viability ([1]; 0.8 µM) | relative viability ([1]; 2.53 µM) | relative viability ([1]; 8 µM) | relative viability ([2]; first compound 0.08 µM) | relative viability ([2]; first compound 0.253 µM) | relative viability ([2]; first compound 0.8 µM) | relative viability ([2]; first compound 2.53 µM) | relative viability ([2]; first compound 8 µM) | relative viability ([3]; first compound 0.08 µM) | relative viability ([3]; first compound 0.253 µM) | relative viability ([3]; first compound 0.8 µM) | relative viability ([3]; first compound 2.53 µM) | relative viability ([3]; first compound 8 µM) | relative viability ([4]; first compound 0.08 µM) | relative viability ([4]; first compound 0.253 µM) | relative viability ([4]; first compound 0.8 µM) | relative viability ([4]; first compound 2.53 µM) | relative viability ([4]; first compound 8 µM) |
| --- | --- | --- | --- | --- | --- | --- | --- | --- | --- | --- | --- | --- | --- | --- | --- | --- | --- | --- | --- | --- |
| NCI-H1650 | 0.942 | 0.915 | 1.2 | 0.995 | 0.976 | 1.25 | 1.08 | 1.29 | 1.19 | 1.14 | 0.367 | 0.432 | 0.442 | 0.381 | 0.293 | 0.387 | 0.407 | 0.498 | 0.4 | 0.382 |
| NCI-H1651 | 1.03 | 1.04 | 0.957 | 0.921 | 1.02 | 1.04 | 1.13 | 1.01 | 0.912 | 0.906 | 0.785 | 0.601 | 0.591 | 0.429 | 0.693 | 0.331 | 0.362 | 0.394 | 0.335 | 0.37 |
| NCI-H1666 | 1 | 0.974 | 0.981 | 0.843 | 1.06 | 0.985 | 0.894 | 0.909 |  | 0.92 | 0.603 | 0.616 | 0.611 | 0.503 | 0.563 | 0.51 | 0.573 | 0.534 | 0.554 | 0.618 |
| NCI-H1734 | 0.945 | 1.07 | 1 | 0.692 | 1.06 | 0.889 | 0.814 | 0.778 |  | 0.861 | 0.22 | 0.294 | 0.246 | 0.242 | 0.268 | 0.395 | 0.427 | 0.45 | 0.305 | 0.377 |
| NCI-H1755 | 1.02 | 0.983 | 0.964 | 0.915 | 1 | 1.04 | 1.01 | 0.977 | 0.961 | 0.894 | 0.664 | 0.627 | 0.517 | 0.436 | 0.557 | 0.637 | 0.683 | 0.611 | 0.576 | 0.633 |
| NCI-H1793 | 1.19 | 1.08 | 1.03 | 0.768 | 0.897 | 0.977 | 0.365 | 0.455 | 0.386 | 0.519 | 0.355 | 0.318 | 0.351 | 0.332 | 0.312 | 0.458 | 0.406 | 0.386 | 0.264 | 0.365 |
| NCI-H1915 | 1.02 | 0.995 | 1.01 | 0.994 | 1.05 | 0.818 | 0.781 | 0.746 | 0.808 | 0.738 | 0.432 | 0.418 | 0.469 | 0.282 | 0.428 | 0.37 | 0.371 | 0.369 | 0.374 | 0.376 |
| NCI-H1944 | 1.02 | 0.975 | 1.02 |  | 1.06 | 1.07 | 1.09 | 1.01 | 0.792 | 1.02 | 0.252 | 0.27 | 0.247 |  | 0.242 | 0.212 | 0.215 | 0.213 |  | 0.217 |
| NCI-H1975 | 0.94 | 1.08 | 0.918 | 0.873 | 0.921 | 1.15 | 1 | 1.1 | 1.02 | 1.03 | 0.9 | 0.819 | 0.738 |  | 0.474 | 0.437 | 0.427 | 0.41 |  | 0.395 |
| NCI-H1993 | 1.01 | 1.07 | 1.19 | 0.677 | 0.971 | 1.1 | 0.986 | 0.903 | 0.667 | 1.14 | 0.547 | 0.588 | 0.623 | 0.464 | 0.536 | 0.419 | 0.51 | 0.495 | 0.499 | 0.54 |
| NCI-H2009 | 0.968 | 1.03 | 0.94 | 1.1 | 1.05 | 1.2 | 1.12 | 1.19 | 1.16 | 1.16 | 0.605 | 0.725 | 0.845 | 0.701 | 0.683 | 0.432 | 0.426 | 0.496 | 0.518 | 0.47 |
| NCI-H2023 | 0.969 | 0.978 | 1.03 | 0.882 | 1.03 | 1 | 1.06 | 1.02 | 0.989 | 0.919 | 0.329 | 0.48 | 0.358 | 0.212 | 0.25 | 0.395 | 0.39 | 0.413 | 0.403 | 0.389 |
| NCI-H2085 | 1.02 | 1 | 1.05 | 1.07 | 0.993 | 1.15 | 1.07 | 1.1 | 1.08 | 1.2 | 0.755 | 0.736 | 0.779 | 0.809 | 0.61 | 0.728 | 0.836 | 0.736 | 0.716 | 0.707 |
| NCI-H2087 | 1.03 | 1.18 | 1.12 | 1.01 | 1.12 | 1.08 | 0.986 | 0.98 | 0.982 | 0.97 | 0.288 | 0.213 | 0.224 | 0.27 | 0.284 | 0.5 | 0.502 | 0.471 | 0.438 | 0.492 |
| NCI-H2126 | 1.06 | 1.07 | 0.981 | 0.796 | 1.08 | 0.926 | 0.898 | 0.839 | 0.738 | 0.84 | 0.82 | 0.838 | 0.89 | 0.726 | 0.857 | 0.543 | 0.568 | 0.539 | 0.526 | 0.539 |
| NCI-H2170 | 0.988 | 1 | 0.909 |  | 0.975 | 0.595 | 0.54 | 0.674 |  | 0.564 | 0.687 | 0.752 | 0.665 | 0.546 | 0.814 | 0.413 | 0.459 | 0.631 | 0.422 | 0.403 |
| NCI-H2228 | 0.972 | 1.08 | 0.913 | 0.846 | 1.15 | 0.753 | 1.04 | 0.675 | 0.856 | 1.08 | 0.281 | 0.278 | 0.228 | 0.226 | 0.201 | 0.341 | 0.278 | 0.31 | 0.347 | 0.393 |
| NCI-H2347 | 1.07 | 1.02 | 0.743 | 1.06 | 1.07 | 0.7 | 0.839 | 0.552 | 0.605 | 0.841 | 0.596 | 0.644 | 0.518 | 0.373 | 0.644 | 0.424 | 0.574 | 0.378 | 0.351 | 0.373 |
| NCI-H2405 | 0.995 | 1 | 0.842 | 0.923 | 1.01 | 0.8 | 0.9 | 0.725 |  | 0.836 | 0.813 | 0.728 | 0.565 | 0.766 | 0.661 | 0.431 | 0.381 | 0.279 | 0.339 | 0.382 |
| NCI-H3122 | 1 | 1.03 | 1.04 | 1.02 | 1.07 | 1.03 | 1.03 | 1.02 | 1.07 | 0.977 | 0.373 | 0.398 | 0.445 | 0.298 | 0.389 | 0.326 | 0.378 | 0.421 | 0.399 | 0.36 |
| PC-3 [JPC-3] | 0.982 | 1.04 | 1.08 | 1.08 | 0.962 | 0.898 | 0.872 | 0.77 | 0.752 | 0.774 | 0.943 | 0.859 | 0.94 | 0.858 | 0.813 | 0.51 | 0.483 | 0.479 | 0.502 | 0.496 |
| PC-14 | 1.02 | 1.01 | 1.05 | 1.02 | 1.04 | 1.06 | 0.967 | 0.849 | 1.01 | 0.952 | 0.57 | 0.583 | 0.658 | 0.582 | 0.569 | 0.464 | 0.665 | 0.576 | 0.581 | 0.695 |
| RERF-LC-KJ | 1.05 | 1.06 | 0.977 | 0.798 | 0.951 | 1.18 | 1.08 | 1.16 | 0.834 | 0.911 | 0.506 | 0.619 | 0.461 | 0.452 | 0.34 | 0.421 | 0.455 | 0.439 | 0.367 | 0.411 |
| SK-LU-1 | 1.05 | 1.04 | 0.777 | 0.945 | 1.19 | 0.904 | 0.961 | 0.418 | 0.851 | 0.955 | 0.309 | 0.318 |  | 0.279 | 0.327 | 0.549 | 0.555 |  | 0.404 | 0.588 |
| SK-MES-1 | 1.04 | 1.03 | 0.99 | 0.958 | 0.99 | 1.31 | 1.22 | 1.09 | 1.21 | 1.28 | 1.02 | 0.961 | 1 | 0.88 | 0.747 | 0.689 | 0.647 | 0.623 | 0.665 | 0.683 |
| SW 1573 | 1.03 | 1.02 | 1.04 | 0.739 | 0.957 | 1.21 | 1.07 | 1.14 | 0.973 | 1.14 | 0.175 | 0.261 | 0.254 |  | 0.139 | 0.378 | 0.36 | 0.567 |  | 0.368 |
| UMC-11 | 0.95 | 0.955 | 1.2 |  | 1.13 | 0.318 | 0.372 | 0.348 |  | 0.399 | 0.197 | 0.198 | 0.206 |  | 0.192 | 0.336 | 0.344 | 0.336 |  | 0.365 |
